Each structure is given as a SMILES string.

Test [1] has as its system Vero. Description: Compound was evaluated for cytotoxicity against Vero cells. The following applies: Chlorocebus sabaeus. The test is classed as functional, cell-based.
Test [2] in a line: Compound was evaluated for cytotoxicity against human lymphocytes (PBM cells). It counts as functional, cell-based. To be noted: PBMC.
Test [3] is described as follows: Median effective dose required for anti HIV-1 activity in PBM cells(Human lymphocytes). The test is classed as functional, cell-based. The following applies: PBMC.
Test [4] has as its system CCRF-CEM. Description: Compound was evaluated for cytotoxicity against CEM cells. It counts as functional, cell-based, Homo sapiens.

On to `Nc1ncnc2c1ncn2C1CC(CO)=NO1` (stereo unspecified), for which the IC50 in test [1] was more than 100 µM; in test [2], more than 100 µM; in test [4] (Homo sapiens, CCRF-CEM) it was more than 100 µM. Besides, it took 54.8 µM to reach a half-maximal effect in test [3] (EC50).
`OCC1=NOC(n2cnc3c(Cl)ncnc32)C1` (stereo unspecified): the IC50 was more than 100 µM in test [1]; 73.5 µM in test [2]; 35.2 µM in test [4] (Homo sapiens, CCRF-CEM). Moreover, the EC50 in test [3] is 34.6 µM.
`Cc1cn([C@H]2C[C@H](N=[N+]=[N-])[C@@H](CO)O2)c(=O)[nH]c1=O` [ZIDOVUDINE]: the IC50 in test [2] is more than 100 µM; in test [4] (ccrf-cem), 14 µM. Besides, in test [3], the concentration giving a half-maximal response (EC50) was determined as 0.004 µM.

For the origin of these results see ChEMBL document CHEMBL1129232, “Synthesis and anti-HIV activity of dihydroisoxazole 6-chloropurine and adenine” (Bioorg Med Chem Lett, 1996).
